Species: Rattus norvegicus
Test: Open TG-GATES - Regimen: Daily Repeat
Assay type: toxicity, organism-based, Sprague-Dawley
Parameters: regimen Daily Repeat, gender Male, age 6 weeks
Conditions: in vivo, po, 30 mg/kg, route gavage, dose level Middle; for APTT / Bas / Eos / Fbg / Hb / Ht / Lym / MCH / MCHC / MCV / Mono / Neu / PT / Plat / RBC / Ret / WBC: tissue Blood; for KIDNEY_L / KIDNEY_R / KIDNEY_TOTAL: tissue Kidney; for LIVER: tissue Liver; for A/G / ALP / ALT / AST / BUN / CRE / Ca / Cl / DBIL / GLC / IP / K / LDH / Na / PL / RALB / TBIL / TC / TG / TP / gamma-GTP: tissue Plasma

OCCOCCN1CCN(C(c2ccccc2)c2ccc(Cl)cc2)CC1 (configuration not stated) [HYDROXYZINE] showed a TERMINAL_BW (72 h, time 3 day) of 226.2 g, an APTT (72 h, time 3 day) of 15.8 s and a Bas (72 h, time 3 day) of 0%. The Eos (72 h, time 3 day) was 1%, the Fbg (72 h, time 3 day) was 261.2 mg/dL and the Hb (72 h, time 3 day) was 13.3 g/dL. It also gave a Ht (72 h, time 3 day) of 40%, a Lym (72 h, time 3 day) of 77.6% and an MCH (72 h, time 3 day) of 21.9 pg. For the same compound, the MCHC (72 h, time 3 day) was 33.3%, the MCV (72 h, time 3 day) was 65.7 fL and the Mono (72 h, time 3 day) was 3%. The Neu (72 h, time 3 day) was 17.8%, the PT (72 h, time 3 day) was 15.3 s and the Plat (72 h, time 3 day) was 120.2 x10_4/uL. It also gave an RBC (72 h, time 3 day) of 609.6 x10_4/ul, a Ret (72 h, time 3 day) of 6.9% and a WBC (72 h, time 3 day) of 89.6 x10_2/uL. For the same compound, the KIDNEY_L (72 h, time 3 day) was 1 g, the KIDNEY_R (72 h, time 3 day) was 1 g and the KIDNEY_TOTAL (72 h, time 3 day) was 2 g. It also gave an LIVER (72 h, time 3 day) of 10.9 g, an A/G (72 h, time 3 day) of 0.9 and an ALP (72 h, time 3 day) of 1463.8 IU/L. The ALT (72 h, time 3 day) was 40.4 IU/L, the AST (72 h, time 3 day) was 66.6 IU/L and the BUN (72 h, time 3 day) was 16.8 mg/dL. It also gave a CRE (72 h, time 3 day) of 0.2 mg/dL, a Ca (72 h, time 3 day) of 11.1 mg/dL and a Cl (72 h, time 3 day) of 104.8 meq/L. For the same compound, the DBIL (72 h, time 3 day) was 0.012 mg/dL, the GLC (72 h, time 3 day) was 186 mg/dL and the IP (72 h, time 3 day) was 7.9 mg/dL. It also gave a K (72 h, time 3 day) of 4 meq/L, an LDH (72 h, time 3 day) of 72.6 IU/L and a Na (72 h, time 3 day) of 143.6 meq/L. The PL (72 h, time 3 day) was 158.6 mg/dL, the RALB (72 h, time 3 day) was 2.6 g/dL and the TBIL (72 h, time 3 day) was 0.05 mg/dL. The TC (72 h, time 3 day) was 83 mg/dL, the TG (72 h, time 3 day) was 100.8 mg/dL and the TP (72 h, time 3 day) was 5.6 g/dL. It also gave a gamma-GTP (72 h, time 3 day) of 0.8 IU/L, a TERMINAL_BW ([…], time 7 day) of 271.6 g and a TERMINAL_BW ([…], time 14 day) of 331.8 g. The TERMINAL_BW ([…], time 28 day) was 390.1 g, the APTT ([…], time 7 day) was 17 s and the Bas ([…], time 7 day) was 0.2%. The Eos ([…], time 7 day) was 0.6%, the Fbg ([…], time 7 day) was 265.6 mg/dL and the Hb ([…], time 7 day) was 13.6 g/dL. It also gave a Ht ([…], time 7 day) of 40.6%, a Lym ([…], time 7 day) of 81.8% and an MCH ([…], time 7 day) of 21.5 pg. The MCHC ([…], time 7 day) was 33.6%, the MCV ([…], time 7 day) was 63.9 fL and the Mono ([…], time 7 day) was 2.2%. It also gave a Neu ([…], time 7 day) of 14.4%, a PT ([…], time 7 day) of 15.6 s and a Plat ([…], time 7 day) of 107.6 x10_4/uL. It also gave an RBC ([…], time 7 day) of 636 x10_4/ul, a Ret ([…], time 7 day) of 6.5% and a WBC ([…], time 7 day) of 91.6 x10_2/uL. The APTT ([…], time 14 day) was 16.5 s, the Bas ([…], time 14 day) was 0% and the Eos ([…], time 14 day) was 0.8%. It also gave a Fbg ([…], time 14 day) of 262.8 mg/dL, a Hb ([…], time 14 day) of 14.2 g/dL and a Ht ([…], time 14 day) of 41.5%. The Lym ([…], time 14 day) was 81.4%, the MCH ([…], time 14 day) was 20.7 pg and the MCHC ([…], time 14 day) was 34.2%. The MCV ([…], time 14 day) was 60.7 fL, the Mono ([…], time 14 day) was 3% and the Neu ([…], time 14 day) was 14.2%. The PT ([…], time 14 day) was 15.6 s, the Plat ([…], time 14 day) was 116.6 x10_4/uL and the RBC ([…], time 14 day) was 683.8 x10_4/ul. For the same compound, the Ret ([…], time 14 day) was 4.5%, the WBC ([…], time 14 day) was 103.2 x10_2/uL and the APTT ([…], time 28 day) was 17.6 s. It also gave a Bas ([…], time 28 day) of 0.4%, an Eos ([…], time 28 day) of 1.6% and a Fbg ([…], time 28 day) of 274.4 mg/dL. It also gave a Hb ([…], time 28 day) of 15.8 g/dL, a Ht ([…], time 28 day) of 45.6% and a Lym ([…], time 28 day) of 80.6%. The MCH ([…], time 28 day) was 19.9 pg, the MCHC ([…], time 28 day) was 34.5% and the MCV ([…], time 28 day) was 57.5 fL. The Mono ([…], time 28 day) was 2%, the Neu ([…], time 28 day) was 14.8% and the PT ([…], time 28 day) was 15.9 s. The Plat ([…], time 28 day) was 91.9 x10_4/uL, the RBC ([…], time 28 day) was 792.8 x10_4/ul and the Ret ([…], time 28 day) was 2.3%. It also gave a WBC ([…], time 28 day) of 101.1 x10_2/uL, a KIDNEY_L ([…], time 7 day) of 1.1 g and a KIDNEY_R ([…], time 7 day) of 1.1 g. It also gave a KIDNEY_TOTAL ([…], time 7 day) of 2.3 g, a KIDNEY_L ([…], time 14 day) of 1.3 g and a KIDNEY_R ([…], time 14 day) of 1.3 g. The KIDNEY_TOTAL ([…], time 14 day) was 2.7 g, the KIDNEY_L ([…], time 28 day) was 1.5 g and the KIDNEY_R ([…], time 28 day) was 1.4 g. The KIDNEY_TOTAL ([…], time 28 day) was 2.9 g, the LIVER ([…], time 7 day) was 14 g and the LIVER ([…], time 14 day) was 16.6 g. It also gave an LIVER ([…], time 28 day) of 16.7 g, an A/G ([…], time 7 day) of 0.8 and an ALP ([…], time 7 day) of 1827.8 IU/L. The ALT ([…], time 7 day) was 37.6 IU/L, the AST ([…], time 7 day) was 64.2 IU/L and the BUN ([…], time 7 day) was 18 mg/dL. The CRE ([…], time 7 day) was 0.2 mg/dL, the Ca ([…], time 7 day) was 11 mg/dL and the Cl ([…], time 7 day) was 104.8 meq/L. For the same compound, the DBIL ([…], time 7 day) was 0.018 mg/dL, the GLC ([…], time 7 day) was 192.8 mg/dL and the IP ([…], time 7 day) was 7.8 mg/dL. For the same compound, the K ([…], time 7 day) was 4.3 meq/L, the LDH ([…], time 7 day) was 58.4 IU/L and the Na ([…], time 7 day) was 142 meq/L. The PL ([…], time 7 day) was 158 mg/dL, the RALB ([…], time 7 day) was 2.7 g/dL and the TBIL ([…], time 7 day) was 0.05 mg/dL. The TC ([…], time 7 day) was 78 mg/dL, the TG ([…], time 7 day) was 120.8 mg/dL and the TP ([…], time 7 day) was 5.9 g/dL. It also gave a gamma-GTP ([…], time 7 day) of 0.6 IU/L, an A/G ([…], time 14 day) of 0.8 and an ALP ([…], time 14 day) of 1412.8 IU/L. It also gave an ALT ([…], time 14 day) of 37.6 IU/L, an AST ([…], time 14 day) of 63.6 IU/L and a BUN ([…], time 14 day) of 17.4 mg/dL. For the same compound, the CRE ([…], time 14 day) was 0.2 mg/dL, the Ca ([…], time 14 day) was 10.7 mg/dL and the Cl ([…], time 14 day) was 103.4 meq/L. For the same compound, the DBIL ([…], time 14 day) was 0.02 mg/dL, the GLC ([…], time 14 day) was 192.4 mg/dL and the IP ([…], time 14 day) was 7.6 mg/dL. The K ([…], time 14 day) was 4.1 meq/L, the LDH ([…], time 14 day) was 82.6 IU/L and the Na ([…], time 14 day) was 141.6 meq/L. It also gave a PL ([…], time 14 day) of 163 mg/dL, an RALB ([…], time 14 day) of 2.7 g/dL and a TBIL ([…], time 14 day) of 0.05 mg/dL. It also gave a TC ([…], time 14 day) of 81.8 mg/dL, a TG ([…], time 14 day) of 142 mg/dL and a TP ([…], time 14 day) of 6 g/dL. The gamma-GTP ([…], time 14 day) was 0.6 IU/L, the A/G ([…], time 28 day) was 0.8 and the ALP ([…], time 28 day) was 1021.6 IU/L. It also gave an ALT ([…], time 28 day) of 37.2 IU/L, an AST ([…], time 28 day) of 59.4 IU/L and a BUN ([…], time 28 day) of 17.8 mg/dL. The CRE ([…], time 28 day) was 0.2 mg/dL, the Ca ([…], time 28 day) was 10.6 mg/dL and the Cl ([…], time 28 day) was 105 meq/L. It also gave a DBIL ([…], time 28 day) of 0.014 mg/dL, a GLC ([…], time 28 day) of 191.2 mg/dL and an IP ([…], time 28 day) of 6.7 mg/dL. The K ([…], time 28 day) was 4 meq/L, the LDH ([…], time 28 day) was 52 IU/L and the Na ([…], time 28 day) was 142.8 meq/L. It also gave a PL ([…], time 28 day) of 156.6 mg/dL, an RALB ([…], time 28 day) of 2.8 g/dL and a TBIL ([…], time 28 day) of 0.046 mg/dL. It also gave a TC ([…], time 28 day) of 77.4 mg/dL, a TG ([…], time 28 day) of 123 mg/dL and a TP ([…], time 28 day) of 6.2 g/dL. It also gave a gamma-GTP ([…], time 28 day) of 0.6 IU/L.

Reference: ChEMBL document CHEMBL3885861, “Open TG-GATES”
